Results taken from patent US20220183282A1, “Fatty Acid Derivatives For Improving The Effect Of Agrochemical Actives” (priority 2019, published 2022).

Columns and labels:
apple leaf cuticles [1] = test: Penetration of Mesotrione through isolated apple leaf cuticles in the presence of test substances; conditions: Mesotrione 0.5 g/L in spray liquid, no test substance
Text: (§1) Surfactants can affect the absorption of (active) ingredients through membranes such as skin, films or the plant cuticle. As a “finite-dose” application, it is known for the single administration or application of a solution, cream, gel etc. to a membrane that the absorption of active ingredient can be influenced by some additives such as surfactants even after wetting.
The principle of the method has been published and described in detail e.g. in WO-A-2005/194844 or WO2017211572 A1). The leaf cuticles were enzymatically isolated in the manner described in the literature from apple leaves of orchard trees in a commercial stone fruit growing facility near Frankfurt am Main in 2017. The stomata-free cuticles were first dried under air and then installed into stainless steel diffusion cells. After application to the original upper side of the leaf and evaporation of the test liquid, i.e. of the spray liquids of the active ingredients with or without the inventive substances or comparative compositions, the diffusion cells were transferred into thermostated blocks and charged with aqueous liquid. The water used to make up the aqueous test liquids was local tap water (of known composition). At regular intervals, aliquot samples were taken and the proportion of active ingredient penetrated was determined by HPLC or alternatively by radio-chemical method where radio-labelled active ingredient was used as tracer to determine the concentration. During the experiment, the temperature in the system (block, diffusion cells, liquids, etc.) and the air humidity above the spray deposit on the cuticle were controlled. In the experiment, relative air humidity was constant throughout at 56% relative air humidity (air over supersaturated calcium nitrate) at a constant 10° C. or 25° C. The analytical determination by means of HPLC (1290 Infinity, Agilent) was effected thereafter with a Kinetex column 30×2, 1 mm, 2.6μ C18 100 A (Phenomenex), taking a 20 μL aliquot as injection volume at the specified times. […]

apple leaf cuticles [2] = test: Penetration of Imidacloprid through isolated apple leaf cuticles in the presence of test substances; conditions: apple, 0.5 g/L
Text: as §1
(§2) The principle of the method has been published and described in detail e.g. in WO-A-2005/194844 or WO2017211572 A1). The leaf cuticles were enzymatically isolated in the manner described in the literature from apple leaves of orchard trees in a commercial stone fruit growing facility near Frankfurt am Main in 2017. The stomata-free cuticles were first dried under air and then installed into stainless steel diffusion cells. After application to the original upper side of the leaf and evaporation of the test liquid, i.e. of the spray liquids of the active ingredients with or without the inventive substances or comparative compositions, the diffusion cells were transferred into thermostated blocks and charged with aqueous liquid. The water used to make up the aqueous test liquids was local tap water (of known composition). At regular intervals, aliquot samples were taken and the proportion of active ingredient penetrated was determined by HPLC or alternatively by radio-chemical method where radio-labelled active ingredient was used as tracer to determine the concentration. During the experiment, the temperature in the system (block, diffusion cells, liquids, etc.) and the air humidity above the spray deposit on the cuticle were controlled. In the experiment, relative air humidity was constant throughout at 56% relative air humidity (air over supersaturated calcium nitrate) at a constant 10° C. or 25° C. The analytical determination by means of HPLC (1290 Infinity, Agilent) was effected thereafter with a Kinetex column 30×2, 1 mm, 2.6μ C18 100 A (Phenomenex), taking a 20 μL aliquot as injection volume at the specified times. In each case, the geometric mean values of the penetration for intact membranes at the mean measurement times are given.

apple leaf cuticles [3] = test: Penetration of Flufenacet through isolated apple leaf cuticles in the presence of test substances; conditions: apple, 0.75 g/L
Text: as §1
as §2, with “In the experiment, relative air humidity was constant throughout at 56% relative air humidity (air over supersaturated calcium nitrate) at a constant 10° C. or 25° C.” left out

apple leaf cuticles [4] = test: Penetration of Mesosulfuron-methyl through isolated apple leaf cuticles in the presence of test substances; type: in vitro ADME; conditions: Mesosulfuron-methyl 0.1 g/L in spray liquid, no test substance, 10° C./61% rel. air humidity
Text: as §1
as §2, with “In the experiment, relative air humidity was constant throughout at 56% relative air humidity (air over supersaturated calcium nitrate) at a constant 10° C. or 25° C.” left out

apple leaf cuticles [5] = test: Penetration of lodosulfuron-methyl through isolated apple leaf cuticles in the presence of test substances; type: in vitro ADME; conditions: lodosulfuron-methyl 0.1 g/L in spray liquid, no test substance, 10° C./61% rel. air humidity
Text: as §1
as §2, with “In the experiment, relative air humidity was constant throughout at 56% relative air humidity (air over supersaturated calcium nitrate) at a constant 10° C. or 25° C.” left out

[6] = Dynamic surface tension, bubble pressure method (BP2100 tensiometer, Krüss); type: physicochemical
Experimental: Dynamic surface tension was determined via the bubble pressure method (BP2100 tensiometer, Krüss). Given a timespan of relevance for the spray application of agrochemicals in aqueous dilution (called the surface age in the bubble pressure method) of 200 milliseconds (ms), the value for dynamic surface tension in [mN/m] correlates with the adhesion on plants that are difficult to wet, such as barley (cereal). A value of 50 mN/m (at 20-21° C.) with respect to water (72.8 mN/m) results in an improvement in the adhesion from “zero adhesion” (0%) to about 50% (Baur P., Pontzen R.; 2007; Basic features of plant surface wettability and deposit formation and the impact of adjuvant; in R. E. Gaskin ed. Proceedings of the 8th International Symposium on Adjuvants for Agrochemicals; Publisher: International Society for Agrochemical Adjuvants (ISAA), Columbus, Ohio, USA).

apple leaf cuticles [7] = test: Penetration of MCPA through isolated apple leaf cuticles in the presence of test substances; conditions: MCPA 1.5 g/L in spray liquid, no test substance, 25° C./56% rel. air humidity
Text: as §1, §2

Question: Which results are given for CS(=O)(=O)c1ccc(C(=O)C2C(=O)CCCC2=O)c([N+](=O)[O-])c1 [Mesotrione]?
Answer: Mean penetration for Mesotrione after time (apple leaf cuticles [1]; 1 day): 0%; Mean penetration for Mesotrione after time (apple leaf cuticles [1]; 2 days): 0%

Question: What does the source list for O=[N+]([O-])NC1=NCCN1Cc1ccc(Cl)nc1 [Imidacloprid, reference compound]?
Answer: Mean penetration for Imidacloprid after time (apple leaf cuticles [2]; 1 day): 0.5%; Mean penetration for Imidacloprid after time (apple leaf cuticles [2]; 4 days): 1.3%

Question: Which results are given for CC(C)N(C(=O)COc1nnc(C(F)(F)F)s1)c1ccc(F)cc1 [Flufenacet, reference compound]?
Answer: Mean penetration for Flufenacet after time (apple leaf cuticles [3]; 1 day): 0.4%; Mean penetration for Flufenacet after time (apple leaf cuticles [3]; 2 days): 0.7%

Question: Which “Mean penetration for Mesosulfuron-methyl after time” value (apple leaf cuticles [4]; 1 day) does the source give for COC(=O)c1ccc(CNS(C)(=O)=O)cc1S(=O)(=O)NC(=O)Nc1nc(OC)cc(OC)n1 [Mesosulfuron-methyl, reference compound] here?
Answer: 0%

Question: And the “Mean penetration for Mesosulfuron-methyl after time” value (apple leaf cuticles [4]; 2 days)?
Answer: 0%

Question: For COC(=O)c1ccc(I)cc1S(=O)(=O)NC(=O)Nc1nc(C)nc(OC)n1 [lodosulfuron-methyl, reference compound], which “Mean penetration for lodosulfuron-methyl after time” value (apple leaf cuticles [5]; 1 day) is on record?
Answer: 0%

Question: And the “Mean penetration for lodosulfuron-methyl after time” value (apple leaf cuticles [5]; 2 days)?
Answer: 0%

Question: What does the source list for “C8/C10 fatty acid 6 EO ester methyl ether [A2]”?
Answer: Dynamic Surface tension ([6]; 0.3 g/L, 20 ms): 54.5 mN/m; Dynamic Surface tension ([6]; 0.3 g/L, 50 ms): 54.5 mN/m; Dynamic Surface tension ([6]; 0.3 g/L, 100 ms): 54.5 mN/m; Dynamic Surface tension ([6]; 0.3 g/L, 200 ms): 54.5 mN/m; Dynamic Surface tension ([6]; 1 g/L, 20 ms): 42.0 mN/m; Dynamic Surface tension ([6]; 1 g/L, 50 ms): 42.0 mN/m; Dynamic Surface tension ([6]; 1 g/L, 100 ms): 42.0 mN/m; Dynamic Surface tension ([6]; 1 g/L, 200 ms): 42.0 mN/m; Dynamic Surface tension ([6]; 3 g/L, 20 ms): 31.5 mN/m; Dynamic Surface tension ([6]; 3 g/L, 50 ms): 31.5 mN/m; Dynamic Surface tension ([6]; 3 g/L, 100 ms): 31.5 mN/m; Dynamic Surface tension ([6]; 3 g/L, 200 ms): 31.5 mN/m; Dynamic Surface tension ([6]; 10 g/L, 20 ms): 28.5 mN/m; Dynamic Surface tension ([6]; 10 g/L, 50 ms): 28.5 mN/m; Dynamic Surface tension ([6]; 10 g/L, 100 ms): 28.5 mN/m; Dynamic Surface tension ([6]; 10 g/L, 200 ms): 28.5 mN/m

Question: Which “Mean penetration for MCPA after time” value (apple leaf cuticles [7]; 0.5 day) does the source give for Cc1cc(Cl)ccc1OCC(=O)O [MCPA, reference compound] here?
Answer: 9.0%

Question: What about the “Mean penetration for MCPA after time” value (apple leaf cuticles [7]; 1 day) of the same molecule?
Answer: 17.1%
